In patent EP2951180B1, “2,6,7,8 SUBSTITUTED PURINES AS HDM2 INHIBITORS” (Merck Sharp & Dohme Corp., priority 2013, dated 2014) one finds IC50 data, which are given here for 30 compounds.

The assay concerns the target T1, HDM2 (Homo sapiens, UniProt Q00987).
T1 construct: Thioredoxin (N); made in house; host or cells: E. coli strain BL21(DE3)Rosetta
As to the kind of experiment: FRET assay (HDM2 inhibition; method not described in this part). In kind it is binding.

T1 sequence (Q00987 17-125): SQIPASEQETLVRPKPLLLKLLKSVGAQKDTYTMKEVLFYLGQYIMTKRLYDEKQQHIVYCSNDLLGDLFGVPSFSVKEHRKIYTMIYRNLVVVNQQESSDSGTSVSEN

The IC50 is the concentration that gives 50% inhibition. Read a low IC50 as higher potency. Turning to `C[C@@H](Nc1nc(C(=O)O)nc2nc(-c3nccs3)n(Cc3ccc(Cl)cc3)c12)C1CC1` [Example 3.8, 7-(4-chlorobenzyl)-6-{[(1R)-1-cyclopropylethyl]amino}-8-(1,3-thiazol-2-yl)-7H-purine-2-carboxylic acid], for the setting “Table 3”, half-maximal inhibition (IC50) was put at 98.8 nM. That is a double-digit nanomolar value. The compound `Cc1cccc(-c2nc3nc(C(=O)O)nc(N[C@H](C)C4CC4)c3n2Cc2ccc(C(F)(F)F)cc2)c1C` [Example 2.59, 6-{[(1R)-1-cyclopropylethyl]amino}-8-(2,3-dimethylphenyl)-7-[4-(trifluoromethyl)benzyl]-7H-purine-2-carboxylic acid] displayed an IC50 (Table 2) of 147 nM. `COc1ccnc(-c2nc3nc(C(=O)O)nc(N[C@H](C)C4CCC4)c3n2Cc2ccc(C(F)(F)F)cc2)c1C` [Example 1.74, 6-{[(1R)-1-cyclobutylethyl]amino}-8-(4-methoxy-3-methylpyridin-2-yl)-7-[4-(trifluoromethyl)benzyl]-7H-purine-2-carboxylic acid]: the half-maximal inhibitory concentration (IC50) (Table 1) came out at 72.5 nM. In turn, `Cc1ccccc1-c1nc2nc(C(=O)O)nc(N[C@H](C)C3CC3)c2n1Cc1ccc(C(F)(F)F)cc1` [Example 2.30, 6-{[(1R)-1-cyclopropylethyl]amino}-8-(2-methylphenyl)-7-[4-(trifluoromethyl)benzyl]-7H-purine-2-carboxylic acid] had an IC50 (Table 2) of 140 nM. Compound `C[C@@H](Nc1nc(C(=O)O)nc2nc(-c3cccnc3)n(Cc3ccc(C(F)(F)F)cc3)c12)C1CC1` [Example 2.44, 6-{[(1R)-1-cyclopropylethyl]amino}-8-pyridin-3-yl-7-[4-(trifluoromethyl)benzyl]-7H-purine-2-carboxylic acid] came in with a concentration for half-maximal inhibition (IC50) (Table 2) of 640 nM. Compound `CC(O)c1ccc(-c2nc3nc(C(=O)O)nc(N[C@H](C)C4CCC4)c3n2Cc2ccc(C(F)(F)F)cc2)cc1` (stereo partly drawn) [Example 1.101, 6-{[(1R)-1-cyclobutylethyl]amino}-8-[4-(1-hydroxyethyl)phenyl]-7-[4-(trifluoromethyl)benzyl]-7H-purine-2-carboxylic acid] gave an IC50 (Table 1) of 34.2 nM. Same read-out and setting: in the case of `C[C@@H](Nc1nc(C(=O)O)nc2nc(-c3ccc(N(C)C)cc3)n(Cc3ccc(C(F)(F)F)cc3)c12)C1CCC1` [Example 1.113, 6-{[(1R)-1-cyclobutylethyl]amino}-8-[4-(dimethylamino)phenyl]-7-[4-(trifluoromethyl)benzyl]-7H-purine-2-carboxylic acid] it was 716 nM. In the case of `C[C@@H](Nc1nc(C(=O)O)nc2nc(-c3ccc4c(c3)CCO4)n(Cc3ccc(C(F)(F)F)cc3)c12)C1CCC1` [Example 1.121, 6-{[(1R)-1-cyclobutylethyl]amino}-8-(2,3-dihydro-1-benzofuran-5-yl)-7-[4-(trifluoromethyl)benzyl]-7H-purine-2-carboxylic acid], inhibition (Table 1) was half-maximal at 7.81 nM (IC50). This IC50 is about 92-fold lower than that of the compound before. In turn, `C[C@@H](Nc1nc(C(=O)O)nc2nc(-c3cc(C(F)F)ccn3)n(Cc3ccc(C(F)(F)F)cc3)c12)C1CCC1` [Example 1.46, 6-{[(1R)-1-cyclobutylethyl]amino}-8-[4-(difluoromethyl)pyridin-2-yl]-7-[4-(trifluoromethyl)benzyl]-7H-purine-2-carboxylic acid] showed a 50% inhibitory concentration (IC50) (Table 1) of 12.3 nM. Compared with the last compound, the IC50 is about 1.6-fold higher. For the compound `COc1c(C)cc(-c2nc3nc(C(=O)O)nc(N[C@H](C)C4CCC4)c3n2Cc2ccc(C(F)(F)F)cc2)cc1C` [Example 1.134, 6-{[(1R)-1-cyclobutylethyl]amino}-8-(4-methoxy-3,5-dimethylphenyl)-7-[4-(trifluoromethyl)benzyl]-7H-purine-2-carboxylic acid], the concentration for half-maximal inhibition (IC50) (Table 1) was found to be 56.2 nM. Turning to `C[C@@H](Nc1nc(C(=O)O)nc2nc(-c3ncccc3-c3ccccc3)n(Cc3ccc(C(F)(F)F)cc3)c12)C1CCC1` [Example 1.75, 6-{[(1R)-1-cyclobutylethyl]amino}-8-(3-phenylpyridin-2-yl)-7-[4-(trifluoromethyl)benzyl]-7H-purine-2-carboxylic acid], the concentration for half-maximal inhibition (IC50) (Table 1) came to 6.12 nM. Under “Table 1”, `Cc1ccnc(-c2nc3nc(C(=O)O)nc(N[C@H](C)C4CCC4)c3n2Cc2ccc(C(F)(F)F)cc2)c1` [Example 1.17, 6-{[(1R)-1-cyclobutylethyl]amino}-8-(4-methylpyridin-2-yl)-7-[4-(trifluoromethyl)benzyl]-7H-purine-2-carboxylic acid] showed a 50% inhibitory concentration (IC50) of 12.7 nM. For the compound `COCCOc1ccc(C)cc1-c1nc2nc(C(=O)O)nc(N[C@H](C)C3CCC3)c2n1Cc1ccc(Cl)cc1` [Example 4.8, (R)-7-(4-chlorobenzyl)-6-((1-cyclobutylethyl)amino)-8-(2-(2-methoxyethoxy)-5-methylphenyl)-7H-purine-2-carboxylic acid], it took 55 nM to reach half-maximal inhibition (Table 4) (IC50). In the case of `C[C@@H](Nc1nc(C(=O)O)nc2nc(-c3cccc(C(C)(C)C)c3)n(Cc3ccc(C(F)(F)F)cc3)c12)C1CC1` [Example 2.19, 8-(3-tert-butylphenyl)-6-{[(1R)-1-cyclopropylethyl]amino}-7-[4-(trifluoromethyl)benzyl]-7H-purine-2-carboxylic acid], for the setting “Table 2”, the IC50 stood at 145 nM. Take `COc1cccc(-c2nc3nc(C(=O)O)nc(N[C@H](C)C4CC4)c3n2Cc2ccc(C(F)(F)F)cc2)c1` [Example 2.14, 6-{[(1R)-1-cyclopropylethyl]amino}-8-(3-methoxyphenyl)-7-[4-(trifluoromethyl)benzyl]-7H-purine-2-carboxylic acid]: half-maximal inhibition (Table 2) (IC50) required 339 nM.

For `C[C@@H](Nc1nc(C(=O)O)nc2nc(-c3ncccn3)n(Cc3ccc(C(F)(F)F)cc3)c12)C1CCC1` [Example 3.4, 6-{[(1R)-1-cyclobutylethyl]amino}-8-pyrimidin-2-yl-7-[4-(trifluoromethyl)benzyl] -7H-purine-2-carboxylic acid], 69.8 nM corresponded to half-maximal inhibition (Table 3) (IC50). As to `C[C@@H](Nc1nc(C(=O)O)nc2nc(-c3cccc(F)c3F)n(Cc3ccc(C(F)(F)F)cc3)c12)C1CC1` [Example 2.73, 6-{[(1R)-1-cyclopropylethyl]amino}-8-(2,3-difluorophenyl)-7-[4-(trifluoromethyl)benzyl]-7H-purine-2-carboxylic acid], where the note is “Table 2”, the IC50 worked out at 111 nM. On to `C[C@@H](Nc1nc(C(=O)O)nc2nc(C3CCCCC3)n(Cc3ccc(C(F)(F)F)cc3)c12)C1CCC1` [Example 2.4, (R)-6-((1-cyclobutylethyl)amino)-8-cyclohexyl-7-(4-(trifluoromethyl)benzyl)-7H-purine-2-carboxylic acid], for which the IC50 (Table 2) worked out at 11.5 nM. In the case of `C[C@@H](Nc1nc(C(=O)O)nc2nc(-c3cccc(C(F)(F)F)n3)n(Cc3ccc(C(F)(F)F)cc3)c12)C1CCC1` [Example 1.122, 6-{[(1R)-1-cyclobutylethyl]amino}-7-[4-(trifluoromethyl)benzyl]-8-[6-(trifluoromethyl)pyridin-2-yl]-7H-purine-2-carboxylic acid], the IC50 (Table 1) was determined as 21.2 nM. For `C[C@@H](Nc1nc(C(=O)O)nc2nc(-c3ccc(OC(F)(F)F)cc3)n(Cc3ccc(C(F)(F)F)cc3)c12)C1CC1` [Example 2.27, 6-{[(1R)-1-cyclopropylethyl]amino}-8-[4-(trifluoromethoxy)phenyl]-7-[4-(trifluoromethyl)benzyl]-7H-purine-2-carboxylic acid], where the note is “Table 2”, the IC50 is 1140 nM.

Consider `C[C@@H](Nc1nc(C(=O)O)nc2nc(-c3ccccc3OC(F)(F)F)n(Cc3ccc(C(F)(F)F)cc3)c12)C1CC1` [Example 2.34, 6-{[(1R)-1-cyclopropylethyl]amino}-8-[2-(trifluoromethoxy)phenyl]-7-[4-(trifluoromethyl)benzyl]-7H-purine-2-carboxylic acid], for which 21 nM corresponded to half-maximal inhibition (Table 2) (IC50). Compound `Cc1cccc(-c2nc3nc(C(=O)O)nc(N[C@H](C)C4CCC4)c3n2Cc2ccc(OC(F)F)cc2)c1` [Example 5.13, 6-{[(1R)-1-cyclobutylethyl]amino}-7-[4-(difluoromethoxy)benzyl]-8-(3-methylphenyl)-7H-purine-2-carboxylic acid] returned an IC50 (Table 5) of 128 nM. In other words, the sub-micromolar range. With `CCc1ccc(OCOC)c(-c2nc3nc(C(=O)O)nc(N[C@H](C)C4CCC4)c3n2Cc2ccc(C(F)(F)F)cc2)c1` [Example 1.36, 6-{[(1R)-1-cyclobutylethyl]amino}-8-[5-ethyl-2-(methoxymethoxy)pheny 1]-7-[4-(trifluoromethyl)benzyl]-7H-purine-2-carboxylic acid], the IC50 (Table 1) came out at 23.1 nM. This counts as double-digit nanomolar. Take `COCCCOc1ccc(C)cc1-c1nc2nc(C(=O)O)nc(N[C@H](C)C3CC3)c2n1Cc1ccc(Cl)cc1` [Example 4.5, (R)-7-(4-chlorobenzyl)-6-((1-cyclopropylethyl)amino)-8-(2-(3-methoxypropoxy)-5-methylphenyl)-7H-purine-2-carboxylic acid]: the IC50 (Table 4) was found to be 162 nM. Turning to `CCC(C)c1ccnc(-c2nc3nc(C(=O)O)nc(N[C@H](C)C4CCC4)c3n2Cc2ccc(C(F)(F)F)cc2)c1` (single isomer, unassigned) [Example 1.15], the IC50 (Table 1) was determined as 3.32 nM. In other words, the single-digit nanomolar range. `CC(C)c1ccnc(-c2nc3nc(C(=O)O)nc(N[C@H](C)C4CCC4)c3n2Cc2ccc(C(F)(F)F)cc2)c1` [Example 1.22] showed a concentration for half-maximal inhibition (IC50) (Table 1) of 4.22 nM.

Consider `CC(C)c1ccnc(-c2nc3nc(C(=O)O)nc(N[C@H](C)C4CCC4)c3n2Cc2ccc(OC(F)(F)F)cc2)c1` [Example 1.72, 6-{[(1R)-1-cyclobutylethyl]amino}-8-[4-(1-methylethyl)pyridin-2-yl]-7-[4-(trifluoromethoxy)benzyl]-7H-purine-2-carboxylic acid], for which inhibition (Table 1) was half-maximal at 12.3 nM (IC50).

In turn, `Cc1ccc(-c2nc3nc(C(=O)O)nc(N[C@H](C)C4CC4)c3n2Cc2ccc(C(F)(F)F)cc2)cc1` [Example 2.33, 6-{[(1R)-1-cyclopropylethyl]amino}-8-(4-methylphenyl)-7-[4-(trifluoromethyl)benzyl]-7H-purine-2-carboxylic acid] gave an IC50 (Table 2) of 401 nM.

The compound `C[C@@H](Nc1nc(C(=O)O)nc2nc(-c3cccc(N(C)C)c3)n(Cc3ccc(C(F)(F)F)cc3)c12)C1CCC1` [Example 2.37, 6-{[(1R)-1-cyclobutylethyl]amino}-8-[3-(dimethylamino)phenyl]-7-[4-(trifluoromethyl)benzyl]-7H-purine-2-carboxylic acid] had an IC50 (Table 2) of 6.6 nM. In the case of `Cc1ccc2cc(-c3nc4nc(C(=O)O)nc(N[C@H](C)C5CCC5)c4n3Cc3ccc(C(F)(F)F)cc3)ccc2n1` [Example 1.111, 6-{[(1R)-1-cyclobutylethyl]amino}-8-(2-methylquinolin-6-yl)-7-[4-(trifluoromethyl)benzyl]-7H-purine-2-carboxylic acid], under “Table 1”, the IC50 is 128 nM.
